This assay concerns the target T1, human TLR7 (Homo sapiens, UniProt Q9NYK1).
T1 construct: host or cells: HEK293 (HEK-Blue hTLR7)
T1 sequence (Q9NYK1 27-1049): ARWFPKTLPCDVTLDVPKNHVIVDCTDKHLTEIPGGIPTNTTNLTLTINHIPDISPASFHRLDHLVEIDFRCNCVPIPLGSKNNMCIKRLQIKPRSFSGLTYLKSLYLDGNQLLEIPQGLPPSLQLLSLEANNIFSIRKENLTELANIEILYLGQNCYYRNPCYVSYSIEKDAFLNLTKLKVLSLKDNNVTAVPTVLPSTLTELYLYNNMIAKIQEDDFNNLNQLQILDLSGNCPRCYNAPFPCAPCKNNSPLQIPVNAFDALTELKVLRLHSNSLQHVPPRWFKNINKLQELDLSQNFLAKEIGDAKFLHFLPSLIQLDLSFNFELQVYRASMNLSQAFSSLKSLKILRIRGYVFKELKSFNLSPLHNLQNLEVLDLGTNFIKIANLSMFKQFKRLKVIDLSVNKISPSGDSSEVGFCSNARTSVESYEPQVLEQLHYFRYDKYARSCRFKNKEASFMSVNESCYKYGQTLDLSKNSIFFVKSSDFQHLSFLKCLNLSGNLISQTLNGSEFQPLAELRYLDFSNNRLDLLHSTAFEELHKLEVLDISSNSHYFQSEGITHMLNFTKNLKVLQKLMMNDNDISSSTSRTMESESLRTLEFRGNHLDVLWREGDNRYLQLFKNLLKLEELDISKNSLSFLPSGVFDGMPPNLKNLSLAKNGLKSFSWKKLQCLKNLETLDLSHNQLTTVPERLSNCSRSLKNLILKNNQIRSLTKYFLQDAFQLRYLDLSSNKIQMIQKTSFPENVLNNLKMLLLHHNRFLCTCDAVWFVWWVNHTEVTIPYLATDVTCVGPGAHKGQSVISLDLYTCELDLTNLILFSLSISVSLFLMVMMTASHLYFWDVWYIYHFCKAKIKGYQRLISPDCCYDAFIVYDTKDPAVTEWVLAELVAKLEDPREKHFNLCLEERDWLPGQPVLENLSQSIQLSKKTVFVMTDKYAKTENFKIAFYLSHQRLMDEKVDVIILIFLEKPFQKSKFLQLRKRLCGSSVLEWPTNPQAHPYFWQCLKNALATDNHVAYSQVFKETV
The assay is described as follows: HEK293-Blue-hTLR-7 cells assay (SEAP reporter, R848 stimulation). To be noted: HEK293-Blue-hTLR7 cells, R848, 20 hrs; read-out: HEK/hTLR7 IC50. The format is cell-based. The method in brief:
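HEK293-Blue-hTLR7 cells (NF-κB/AP-1-driven SEAP reporter) were stimulated with R848 alongside serially diluted compound at 1% final DMSO for 20 h at 37 °C. Supernatant SEAP was then developed with QUANTI-Blue for 2 h at 37 °C and absorbance read at 620–655 nm; antagonism is measured as reduced reporter signal.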
On to `Cc1cc(N2CCN(C[C@H]3CN(c4ccc(C#N)c5ncccc45)C[C@@H](C)O3)CC2)nc(N2CCC(N)C(F)(F)C2)n1` (stereo partly drawn) [Example 86, 5-[(2S,6R)-2-[[4-[2-(4-amino-3,3-difluoro-1-piperidyl)-6-methyl-pyrimidin-4-yl]piperazin-1-yl]methyl]-6-methyl-morpholin-4-yl]quinoline-8-carbonitrile], for which the IC50 was 0.022 µM. The value for `Cc1cc(N2CCN(C[C@H]3CN(c4ccc(C#N)c5ncccc45)C[C@@H](C)O3)CC2)nc(NC2CNCC2F)n1` (stereo in doubt) [Example 73, 5-[(2S,6R)-2-[[4-[2-[[(3S,4R)-4-fluoropyrrolidin-3-yl]amino]-6-methyl-pyrimidin-4-yl]piperazin-1-yl]methyl]-6-methyl-morpholin-4-yl]quinoline-8-carbonitrile] was 0.049 µM; that for `Cc1cc(N2CCN(C[C@H]3CN(c4ccc(C#N)c5ncccc45)C[C@@H](C)O3)CC2)nc(N2CC[C@@H](N)[C@@H](F)C2)n1` [Example 78, 5-[(2S,6R)-2-[[4-[2-[(3S,4R)-4-amino-3-fluoro-1-piperidyl]-6-methyl-pyrimidin-4-yl]piperazin-1-yl]methyl]-6-methyl-morpholin-4-yl]quinoline-8-carbonitrile] was 0.02 µM. The value for `Cc1cc(N2CCN(C[C@H]3CN(c4ccc(C#N)c5ncccc45)C[C@@H](C)O3)CC2)nc(N[C@@H]2CNC[C@@H]2F)n1` [Example 71, 5-[(2S,6R)-2-[[4-[2-[[(3R,4S)-4-fluoropyrrolidin-3-yl]amino]-6-methyl-pyrimidin-4-yl]piperazin-1-yl]methyl]-6-methyl-morpholin-4-yl]quinoline-8-carbonitrile] was 0.045 µM; that for `CO[C@@H]1CN(c2nc(C)cc(N3CCN(C[C@H]4CN(c5ccc(C#N)c6ncccc56)C[C@@H](C)O4)CC3)n2)C[C@@H]1N` [Example 72, 5-[(2S,6R)-2-[[4-[2-[(3S,4R)-3-amino-4-methoxy-pyrrolidin-1-yl]-6-methyl-pyrimidin-4-yl]piperazin-1-yl]methyl]-6-methyl-morpholin-4-yl]quinoline-8-carbonitrile] was 0.006 µM; that for `C[C@@H]1CN(c2ccc(C#N)c3ncccc23)C[C@H](CN2CCN(c3ccccc3C3CNCCO3)CC2)O1` (stereo partly drawn) [Example 89, 5-[(2R,6S)-2-methyl-6-[[4-(2-morpholin-2-ylphenyl)piperazin-1-yl]methyl]morpholin-4-yl]quinoline-8-carbonitrile] was 0.006 µM. As to `Cc1cc(N2CCN(C[C@H]3CN(c4ccc(C#N)c5ncccc45)C[C@@H](C)O3)CC2)nc(N2CC[C@@H](F)[C@@H](N)C2)n1` [Example 83, 5-[(2R,6S)-2-methyl-6-[[4-[6-methyl-2-[(3S,4R)-3-amino-4-fluoro-1-piperidyl]-pyrimidin-4-yl]piperazin-1-yl]methyl]morpholin-4-yl]quinoline-8-carbonitrile], the IC50 stood at 0.032 µM. The value for `Cc1cc(N2CCN(C[C@H]3CN(c4ccc(C#N)c5ncccc45)C[C@@H](C)O3)CC2)nc(N2CC(N)CC(F)(F)C2)n1` (stereo partly drawn) [Example 80, 5-[(2S,6R)-2-[[4-[2-(5-amino-3,3-difluoro-1-piperidyl)-6-methyl-pyrimidin-4-yl]piperazin-1-yl]methyl]-6-methyl-morpholin-4-yl]quinoline-8-carbonitrile] was 0.107 µM; that for `CO[C@H]1CN(c2nc(C)cc(N3CCN(C[C@H]4CN(c5ccc(C#N)c6ncccc56)C[C@@H](C)O4)CC3)n2)CCC1N` (stereo in doubt) [Example 90, 5-[(2S,6R)-2-[[4-[2-[(3S,4S)-4-amino-3-methoxy-1-piperidyl]-6-methyl-pyrimidin-4-yl]piperazin-1-yl]methyl]-6-methyl-morpholin-4-yl]quinoline-8-carbonitrile] was 0.021 µM. Take `Cc1cc(N2CCN(C[C@H]3CN(c4ccc(C#N)c5ncccc45)C[C@@H](C)O3)CC2)nc(N2C[C@H](N)C[C@@H](F)C2)n1` (relative stereo) [Example 75, 5-[(2R,6S)-2-methyl-6-[[4-[6-methyl-2-[trans-3-amino-5-fluoro-1-piperidyl]pyrimidin-4-yl]piperazin-1-yl]methyl]morpholin-4-yl]quinoline-8-carbonitrile]: the IC50 turned out to be 0.025 µM. The value for `CO[C@@H]1CN(c2nc(C)cc(N3CCN(C[C@H]4CN(c5ccc(C#N)c6ncccc56)C[C@@H](C)O4)CC3)n2)C[C@H]1N` (single isomer, unassigned) [Example 69B] was 0.007 µM; that for `Cc1cc(N2CCN(C[C@H]3CN(c4ccc(C#N)c5ncccc45)C[C@@H](C)O3)CC2)nc(N2C[C@H](N)C[C@H](F)C2)n1` (relative stereo) [Example 74, 5-[(2R,6S)-2-methyl-6-[[4-[6-methyl-2-[cis-3-amino-5-fluoro-1-piperidyl]pyrimidin-4-yl]piperazin-1-yl]methyl]morpholin-4-yl]quinoline-8-carbonitrile] was 0.024 µM; that for `Cc1cc(N2CCN(C[C@H]3CN(c4ccc(C#N)c5ncccc45)C[C@@H](C)O3)CC2)nc(N2CC[C@@H](F)C(N)C2)n1` (single isomer, unassigned) [Example 84] was 0.01 µM. The value for `COC1CNCC1Nc1nc(C)cc(N2CCN(C[C@H]3CN(c4ccc(C#N)c5ncccc45)C[C@@H](C)O3)CC2)n1` (stereo in doubt) [Example 70, 5-[(2S,6R)-2-[[4-[2-[[(3R,4R)-4-methoxypyrrolidin-3-yl]amino]-6-methyl-pyrimidin-4-yl]piperazin-1-yl]methyl]-6-methyl-morpholin-4-yl]quinoline-8-carbonitrile] was 0.07 µM.

For `Cc1cc(N2CCN(C[C@H]3CN(c4ccc(C#N)c5ncccc45)C[C@@H](C)O3)CC2)nc(N2C[C@@H](N)C[C@@H](F)C2)n1` [Example 77, 5-[(2S,6R)-2-[[4-[2-[(3S,5R)-3-amino-5-fluoro-1-piperidyl]-6-methyl-pyrimidin-4-yl]piperazin-1-yl]methyl]-6-methyl-morpholin-4-yl]quinoline-8-carbonitrile], the IC50 worked out at 0.026 µM. Take `Cc1cc(N2CCN(C[C@H]3CN(c4ccc(C#N)c5ncccc45)C[C@@H](C)O3)CC2)nc(N2C[C@@H](N)[C@H](F)C2)n1` [Example 79, 5-[(2S,6R)-2-[[4-[2-[(3R,4R)-3-amino-4-fluoro-pyrrolidin-1-yl]-6-methyl-pyrimidin-4-yl]piperazin-1-yl]methyl]-6-methyl-morpholin-4-yl]quinoline-8-carbonitrile]: the IC50 was 0.021 µM.

As to `Cc1cc(N2CCN(C[C@H]3CN(c4ccc(C#N)c5ncccc45)C[C@@H](C)O3)CC2)nc(N2CC[C@@H](N)C(F)C2)n1` (stereo in doubt) [Example 82, 5-[(2S,6R)-2-[[4-[2-[(3R,4R)-4-amino-3-fluoro-1-piperidyl]-6-methyl-pyrimidin-4-yl]piperazin-1-yl]methyl]-6-methyl-morpholin-4-yl]quinoline-8-carbonitrile], the IC50 is 0.029 µM. The value for `Cc1cc(N2CCN(C[C@H]3CN(c4ccc(C#N)c5ncccc45)C[C@@H](C)O3)CC2)nc(N[C@@H]2CNC[C@H]2F)n1` [Example 76, 5-[(2S,6R)-2-[[4-[2-[[(3R,4R)-4-fluoropyrrolidin-3-yl]amino]-6-methyl-pyrimidin-4-yl]piperazin-1-yl]methyl]-6-methyl-morpholin-4-yl]quinoline-8-carbonitrile] was 0.02 µM.

The values above are taken from patent US20210395239A1 (Hoffmann-La Roche Inc., priority 2018, published 2021).
